Measured values published in patent US20040072824A1, “Methods and compositions for the treatment of cancer” (priority 2001, published 2004).
Where two headings read alike, the source gives them in different places.

Columns and labels:
[1] = tested on: MDA-MB-231 (breast cancer line); assay: Curative effects on palpable tumors, MDA-MB-231 cells in scid/scid mice; format: in vivo; conditions: 2.5 mg/kg daily once tumors palpable
Description: In this series of experiments, effects of various compounds of the present invention on tumor development were tested using two protocols. The first protocol is directed to the testing of curative effects of these compounds in different cell lines. In this protocol, cancerous cells are inoculated to the animals, and the inoculated animals were left without any further treatment until the development of tumors. As soon as the tumors became palable (4 mm^3), the compounds of this invention were administered daily to the animals.

[2] = tested on: blastic cells from AML patients; assay: Inhibition of viability of fresh leukemic cells (trypan blue exclusion); format: cell-based, human; conditions: day 3; for cytotoxicity at 10 µM / cytotoxicity at 1 µM: Homo sapiens
Description: Samples for AML 1 through 5, AML 1 being the least and AML 5 being the most differentiated, were obtained. […] Cells were incubated with or without […] anti-histamine derivatives. Polaramine was included as a negative control. Cell counts were assessed by trypan blue exclusion test at day 3 after the incubation. Morphological analysis was performed using Wright-Giemsa staining on cytocentrifuge preparations. The results were expressed as % inhibition of growth as compared to negative control.

[3] = tested on: K562, U937, MDA-DB231, BT20 and MCF7 cell lines; assay: Cytotoxic effects in multi-well plate, 6 days, ATP level (CellTiter-Glo); conditions: 2x10^-9 M to 2x10^-4 M
Description: In order to test the cytotoxic effects of various compounds, a test was developed in a multi-well plate. Two leukemic cell lines, namely K562 and U937, and three breast cancer cell lines, namely MDA-DB231, BT20 and MCF7 were used for this test.
The cells were seeded at low density and were left for 24 hours to recover and reach a new logarithmic phase of growth. Various concentrations of the compounds being tested, ranging from 2×10^−9 M to 2×10^−4 M, were added in triplicate. The mixture was incubated for 6 days, during which approximately 4 doublings of the cell population occurred, to allow the cells to reach subconfluence.
The viability of the cultured cells after the treatment by the compounds was determined by quantifying the level of ATP since the level of ATP is directly proportional to the number of viable cells present in the culture. The ATP level was quantified by using CellTiter-Glo™ (Promega) luminescent test for cell viability.

OCCN1CCN(CCCN2c3ccccc3Sc3ccc(Cl)cc32)CC1 [S64, perphenazine]
tumor volume [1]: regression of the tumor volume
cytotoxicity at 10 µM ([2]; 72 h, MEAN over AML patients, 10^-5 M, read-out: In Vitro Percent Inhibition of Viability, MEAN): 36%
cytotoxicity at 1 µM ([2]; 72 h, MEAN over AML patients, 10^-6 M, read-out: In Vitro Percent Inhibition of Viability, MEAN): 11%
cytotoxicity at 10 µM ([2]; 72 h, patient ID 3, FAB AML2, 10^-5 M, read-out: In Vitro Percent Inhibition of Viability): 31%
cytotoxicity at 1 µM ([2]; 72 h, patient ID 3, FAB AML2, 10^-6 M, read-out: In Vitro Percent Inhibition of Viability): 12%
cytotoxicity at 10 µM ([2]; 72 h, patient ID 4, FAB AML2, 10^-5 M, read-out: In Vitro Percent Inhibition of Viability): 27%
cytotoxicity at 1 µM ([2]; 72 h, patient ID 4, FAB AML2, 10^-6 M, read-out: In Vitro Percent Inhibition of Viability): 25%
cytotoxicity at 10 µM ([2]; 72 h, patient ID 5, FAB AML2, 10^-5 M, read-out: In Vitro Percent Inhibition of Viability): 26%
cytotoxicity at 1 µM ([2]; 72 h, patient ID 5, FAB AML2, 10^-6 M, read-out: In Vitro Percent Inhibition of Viability): 3%
cytotoxicity at 10 µM ([2]; 72 h, patient ID 10, FAB AML4, 10^-5 M, read-out: In Vitro Percent Inhibition of Viability): 42%
cytotoxicity at 1 µM ([2]; 72 h, patient ID 10, FAB AML4, 10^-6 M, read-out: In Vitro Percent Inhibition of Viability): 36%
cytotoxicity at 10 µM ([2]; 72 h, patient ID 11, FAB AML5, 10^-5 M, read-out: In Vitro Percent Inhibition of Viability): 57%
cytotoxicity at 1 µM ([2]; 72 h, patient ID 11, FAB AML5, 10^-6 M, read-out: In Vitro Percent Inhibition of Viability): 7%
cytotoxicity at 10 µM ([2]; 72 h, patient ID 12, FAB AML5, 10^-5 M, read-out: In Vitro Percent Inhibition of Viability): 54%
cytotoxicity at 10 µM ([2]; 72 h, patient ID 13, FAB AML5, 10^-5 M, read-out: In Vitro Percent Inhibition of Viability): 47%
cytotoxicity at 1 µM ([2]; 72 h, patient ID 13, FAB AML5, 10^-6 M, read-out: In Vitro Percent Inhibition of Viability): 0%
cytotoxicity at 10 µM ([2]; 72 h, patient ID 14, FAB AML5, 10^-5 M, read-out: In Vitro Percent Inhibition of Viability): 23%
cytotoxicity at 1 µM ([2]; 72 h, patient ID 14, FAB AML5, 10^-6 M, read-out: In Vitro Percent Inhibition of Viability): 18%
cytotoxicity at 10 µM ([2]; 72 h, patient ID 15, FAB AML5, 10^-5 M, read-out: In Vitro Percent Inhibition of Viability): 17%
cytotoxicity at 1 µM ([2]; 72 h, patient ID 15, FAB AML5, 10^-6 M, read-out: In Vitro Percent Inhibition of Viability): 8%
cytotoxicity at 10 µM ([2]; AML1, 72 h, patient ID 1, FAB AML1, 10^-5 M, read-out: In Vitro Percent Inhibition of Viability): 17%
cytotoxicity at 1 µM ([2]; AML1, 72 h, patient ID 1, FAB AML1, 10^-6 M, read-out: In Vitro Percent Inhibition of Viability): 8%
cytotoxicity at 10 µM ([2]; AML1, 72 h, patient ID 2, FAB AML1, 10^-5 M, read-out: In Vitro Percent Inhibition of Viability): 32%
cytotoxicity at 1 µM ([2]; AML1, 72 h, patient ID 2, FAB AML1, 10^-6 M, read-out: In Vitro Percent Inhibition of Viability): 0%
cytotoxicity at 10 µM ([2]; AML3, 72 h, patient ID 6, FAB AML3, 10^-5 M, read-out: In Vitro Percent Inhibition of Viability): 35%
cytotoxicity at 1 µM ([2]; AML3, 72 h, patient ID 6, FAB AML3, 10^-6 M, read-out: In Vitro Percent Inhibition of Viability): 24%
cytotoxicity at 10 µM ([2]; AML3, 72 h, patient ID 7, FAB AML3, 10^-5 M, read-out: In Vitro Percent Inhibition of Viability): 45%
cytotoxicity at 1 µM ([2]; AML3, 72 h, patient ID 7, FAB AML3, 10^-6 M, read-out: In Vitro Percent Inhibition of Viability): 0%
cytotoxicity at 10 µM ([2]; AML3, 72 h, patient ID 8, FAB AML3, 10^-5 M, read-out: In Vitro Percent Inhibition of Viability): 50%
cytotoxicity at 1 µM ([2]; AML3, 72 h, patient ID 8, FAB AML3, 10^-6 M, read-out: In Vitro Percent Inhibition of Viability): 18%
cytotoxicity at 10 µM ([2]; AML3, 72 h, patient ID 9, FAB AML3, 10^-5 M, read-out: In Vitro Percent Inhibition of Viability): 35%
cytotoxicity at 1 µM ([2]; AML3, 72 h, patient ID 9, FAB AML3, 10^-6 M, read-out: In Vitro Percent Inhibition of Viability): 0%
cytotoxic effect group [3]: I

OCCN1CCN(CC/C=C2/c3ccccc3Sc3ccc(C(F)(F)F)cc32)CC1 [i41, flupentixol]
In Vitro Percent Inhibition of Viability, MEAN ([2]; MEAN over AML patients, 10^-5 M): 50%
In Vitro Percent Inhibition of Viability, MEAN ([2]; MEAN over AML patients, 10^-6 M): 24%
In Vitro Percent Inhibition of Viability ([2]; patient ID 1, FAB AML1, 10^-5 M): 20%
In Vitro Percent Inhibition of Viability ([2]; patient ID 1, FAB AML1, 10^-6 M): 25%
In Vitro Percent Inhibition of Viability ([2]; patient ID 2, FAB AML1, 10^-5 M): 30%
In Vitro Percent Inhibition of Viability ([2]; patient ID 2, FAB AML1, 10^-6 M): 0%
In Vitro Percent Inhibition of Viability ([2]; patient ID 3, FAB AML2, 10^-5 M): 68%
In Vitro Percent Inhibition of Viability ([2]; patient ID 3, FAB AML2, 10^-6 M): 34%
In Vitro Percent Inhibition of Viability ([2]; patient ID 4, FAB AML2, 10^-5 M): 38%
In Vitro Percent Inhibition of Viability ([2]; patient ID 4, FAB AML2, 10^-6 M): 35%
In Vitro Percent Inhibition of Viability ([2]; patient ID 5, FAB AML2, 10^-5 M): 40%
In Vitro Percent Inhibition of Viability ([2]; patient ID 5, FAB AML2, 10^-6 M): 1%
In Vitro Percent Inhibition of Viability ([2]; patient ID 6, FAB AML3, 10^-5 M): 85%
In Vitro Percent Inhibition of Viability ([2]; patient ID 6, FAB AML3, 10^-6 M): 24%
In Vitro Percent Inhibition of Viability ([2]; patient ID 7, FAB AML3, 10^-5 M): 50%
In Vitro Percent Inhibition of Viability ([2]; patient ID 7, FAB AML3, 10^-6 M): 30%
In Vitro Percent Inhibition of Viability ([2]; patient ID 8, FAB AML3, 10^-5 M): 46%
In Vitro Percent Inhibition of Viability ([2]; patient ID 8, FAB AML3, 10^-6 M): 38%
In Vitro Percent Inhibition of Viability ([2]; patient ID 9, FAB AML3, 10^-5 M): 97%
In Vitro Percent Inhibition of Viability ([2]; patient ID 9, FAB AML3, 10^-6 M): 23%
In Vitro Percent Inhibition of Viability ([2]; patient ID 10, FAB AML4, 10^-5 M): 55%
In Vitro Percent Inhibition of Viability ([2]; patient ID 10, FAB AML4, 10^-6 M): 33%
In Vitro Percent Inhibition of Viability ([2]; patient ID 11, FAB AML5, 10^-5 M): 75%
In Vitro Percent Inhibition of Viability ([2]; patient ID 11, FAB AML5, 10^-6 M): 36%
In Vitro Percent Inhibition of Viability ([2]; patient ID 12, FAB AML5, 10^-5 M): 55%
In Vitro Percent Inhibition of Viability ([2]; patient ID 13, FAB AML5, 10^-5 M): 40%
In Vitro Percent Inhibition of Viability ([2]; patient ID 13, FAB AML5, 10^-6 M): 24%
In Vitro Percent Inhibition of Viability ([2]; patient ID 14, FAB AML5, 10^-5 M): 25%
In Vitro Percent Inhibition of Viability ([2]; patient ID 14, FAB AML5, 10^-6 M): 23%
In Vitro Percent Inhibition of Viability ([2]; patient ID 15, FAB AML5, 10^-5 M): 27%
In Vitro Percent Inhibition of Viability ([2]; patient ID 15, FAB AML5, 10^-6 M): 16%
cytotoxic effect group [3]: I
